Experimental data: paper PMC7985297 (Communications Biology, 2021)
Several values for one entry are separate records, joined by “and”; a condition that tells them apart may be missing. Equal entries are not always repeated.

Tests used:
[1] = tested on: LN95 cells; assay: BrdU incorporation assay, LN95; format: cell-based, human; conditions: ENZ 10 µM, EPI-002 25 µM, JUG 20 µM, ATRA 10 µM
Procedure: (§1) Cells were treated with the inhibitors and stimulated with 1 nM of R1881 (+) or vehicle (−) for 24 to 72 h. Each data point represents the average from an independent experiment where the error bars show the mean ± s.e.m.
(§2) BrdU incorporation was determined with the colorimetric BrdU ELISA kit (Roche Diagnostics), according to the manufacturer’s protocol. In brief, cells were seeded in 96-well plates (LNCaP, 5000/well; LN95, 8000/well; PC-3 and DU145, 4000/wells) in media with reduced serum (0.5–1%). On the following day, cells were pre-treated with test compounds for 1 h and then incubated with 0.1 nM of R1881. After the indicated incubation times, cells were labeled with 10 μM of BrdU for 2 h and then fixed for the assay.

[2] = target: AR-V7 (Homo sapiens, UniProt P10275); assay: Transcriptional reporter assay for AR-V7 (V7BS3-luciferase) in LNCaP cells; conditions: enzalutamide 10 µM, EPI-002 25 µM, juglone 20 µM, ATRA 10 µM, 24 h
Sequence of AR-V7 (P10275 1-644 isoform P10275-3): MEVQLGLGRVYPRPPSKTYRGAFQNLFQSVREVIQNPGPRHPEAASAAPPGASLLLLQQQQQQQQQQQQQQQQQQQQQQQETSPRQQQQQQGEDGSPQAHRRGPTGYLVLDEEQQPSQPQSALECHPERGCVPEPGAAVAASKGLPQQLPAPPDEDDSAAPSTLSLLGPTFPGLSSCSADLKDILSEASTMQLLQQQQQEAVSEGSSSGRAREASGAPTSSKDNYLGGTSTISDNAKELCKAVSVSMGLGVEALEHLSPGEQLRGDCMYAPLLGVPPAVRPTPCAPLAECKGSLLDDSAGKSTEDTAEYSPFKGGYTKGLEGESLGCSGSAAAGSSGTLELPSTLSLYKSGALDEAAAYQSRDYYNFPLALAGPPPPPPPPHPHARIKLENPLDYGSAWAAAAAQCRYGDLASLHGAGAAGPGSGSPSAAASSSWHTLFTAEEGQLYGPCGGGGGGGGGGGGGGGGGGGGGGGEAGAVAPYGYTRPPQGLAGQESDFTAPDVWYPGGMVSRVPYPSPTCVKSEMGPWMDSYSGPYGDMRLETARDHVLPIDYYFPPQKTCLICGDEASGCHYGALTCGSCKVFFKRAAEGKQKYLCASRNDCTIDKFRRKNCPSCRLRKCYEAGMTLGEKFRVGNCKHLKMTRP

[3] = tested on: LN95 cells; assay: Colony formation of LN95 cells; format: cell-based, human; conditions: LN95, ATRA 5 or 10 µM, EPI-002 25 µM, treated 24 hours then re-plated
Procedure: page 5: Supplementary Figure 5 a b […] (a) Representative images of colonies from LN95 cells after […] EPI-002. After treating with compounds for 24 hours, the media was removed, and 500 -1,000 cells were re-plated in 6-well plates. Colonies were fixed with 4% paraformaldehyde, stained with a 0.1% crystal violet solution, and then imaged. […]

[4] = tested on: LN95 cells; assay: Senescence-associated β-galactosidase staining, LN95; conditions: LN95, ATRA 10 μM, EPI-002 25 μM, 3 days
Procedure: β-galactosidase activity at suboptimal pH (6.0) was used as a marker to detect cellular senescence[42]. Cells were seeded in four-well chamber slides at a density of 8000-10,000 cells. […] Three days later, the media was removed and cells were fixed with 2% formaldehyde/0.2% glutaraldehyde for 10 min at room temperature, washed with PBS, and then incubated with freshly prepared β-Gal staining solution (Cell Signaling) titrated to pH 6.0. Staining was optimal after incubating with the β-Gal solution at 37 °C for 16–18 h. After staining, the slides were washed twice with PBS, once with absolute methanol, and then mounted with 50% glycerol/PBS. The percentage of β-galactosidase-positive cells were counted with ImageJ using the Cell Counter plugin. A total of nine images containing 100–300 cells were scored to determine the percentages of positive cells.

[5] = target: T1, full-length AR (Homo sapiens, UniProt P10275, T878A); assay: PSA(6.1 kb)-luciferase AR-driven reporter assay in LNCaP cells; format: cell-based; conditions: for fractional response (Fig. 5g): monotherapy or with 5 µM ATRA
T1 construct: Transcriptional activity of full-length AR was assessed in LNCaP cells; endogenous in cells; host or cells: LNCaP
T1 sequence (P10275 1-920 T878A): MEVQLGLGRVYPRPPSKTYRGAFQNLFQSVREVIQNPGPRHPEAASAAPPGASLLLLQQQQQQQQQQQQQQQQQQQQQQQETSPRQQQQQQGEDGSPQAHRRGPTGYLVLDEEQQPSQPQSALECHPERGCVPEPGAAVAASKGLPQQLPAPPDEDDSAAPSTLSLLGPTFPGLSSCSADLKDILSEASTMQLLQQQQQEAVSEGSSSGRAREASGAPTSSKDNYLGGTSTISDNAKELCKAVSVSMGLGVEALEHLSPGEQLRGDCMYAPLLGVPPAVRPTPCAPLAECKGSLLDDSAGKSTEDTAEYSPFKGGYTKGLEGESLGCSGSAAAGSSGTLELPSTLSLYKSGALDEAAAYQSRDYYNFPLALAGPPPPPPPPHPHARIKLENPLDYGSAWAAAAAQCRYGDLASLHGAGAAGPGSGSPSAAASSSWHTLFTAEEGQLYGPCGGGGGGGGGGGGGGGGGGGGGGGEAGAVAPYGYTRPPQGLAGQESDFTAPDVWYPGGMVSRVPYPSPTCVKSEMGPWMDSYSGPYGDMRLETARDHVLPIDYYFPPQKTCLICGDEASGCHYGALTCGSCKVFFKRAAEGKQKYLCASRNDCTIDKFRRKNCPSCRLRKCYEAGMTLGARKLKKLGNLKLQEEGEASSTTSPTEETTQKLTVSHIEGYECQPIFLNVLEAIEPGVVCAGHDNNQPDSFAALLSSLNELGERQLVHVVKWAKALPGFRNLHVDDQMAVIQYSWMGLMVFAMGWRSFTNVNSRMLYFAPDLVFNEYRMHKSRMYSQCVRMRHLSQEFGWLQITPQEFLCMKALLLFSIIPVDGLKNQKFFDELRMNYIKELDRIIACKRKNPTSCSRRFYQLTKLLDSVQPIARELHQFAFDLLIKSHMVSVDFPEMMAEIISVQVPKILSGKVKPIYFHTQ

[6] = tested on: DU145 cells; assay: BrdU incorporation assay, DU145; format: cell-based, human; conditions: − R1881; ENZ 10 µM, EPI-002 25 µM, JUG 20 µM, ATRA 10 µM
Procedure: as §1, §2

[7] = target: T2, human AR NTD (AR1–558) fused to Gal4DBD (Gal4-ARN) (Homo sapiens, UniProt P10275); assay: AR NTD transactivation assay (Gal4-ARN) in LNCaP cells; format: cell-based; conditions: EPI-002 25 μM, juglone 20 μM, ATRA 10 μM, 24 h
T2 construct: construct encoding the human AR1–558 of the NTD fused to a Gal4DBD (Gal4-ARN); expressed in transfected cells; host or cells: LNCaP
T2 sequence (P10275 1-558): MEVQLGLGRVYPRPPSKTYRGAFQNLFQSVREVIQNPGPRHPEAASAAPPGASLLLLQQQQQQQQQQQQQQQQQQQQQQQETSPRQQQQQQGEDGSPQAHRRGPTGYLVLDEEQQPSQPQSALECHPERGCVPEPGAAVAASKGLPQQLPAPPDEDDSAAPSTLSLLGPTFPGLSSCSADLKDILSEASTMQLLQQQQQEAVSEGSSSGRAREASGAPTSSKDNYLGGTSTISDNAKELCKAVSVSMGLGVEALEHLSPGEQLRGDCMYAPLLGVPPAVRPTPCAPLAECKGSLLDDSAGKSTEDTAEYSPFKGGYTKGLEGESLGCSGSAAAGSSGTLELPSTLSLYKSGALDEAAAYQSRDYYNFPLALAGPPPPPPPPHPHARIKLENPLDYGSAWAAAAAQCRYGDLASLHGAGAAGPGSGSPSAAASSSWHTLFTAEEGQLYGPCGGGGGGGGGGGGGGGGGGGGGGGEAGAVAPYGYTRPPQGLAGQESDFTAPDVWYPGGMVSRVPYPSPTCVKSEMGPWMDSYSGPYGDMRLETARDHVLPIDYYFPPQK
Text: The remaining putative Pin1-binding sites are within the intrinsically disordered AR NTD that contains transcription activation units, Tau-1 and Tau-5, to mediate androgen-dependent and androgen-independent transactivation, respectively[5],[30]. The loss of AR-LBD shifts the location of transcriptional activity from Tau-1 with androgen, to Tau-5 in the absence of LBD[30].
Error bars show the mean ± s.e.m. *P < 0.05, **P < 0.01, ***P < 0.001; ns not significant.

[8] = tested on: PC-3 cells; assay: BrdU incorporation assay, PC-3; format: cell-based, human; conditions: − R1881; ENZ 10 µM, EPI-002 25 µM, JUG 20 µM, ATRA 10 µM
Procedure: as §1, §2

[9] = led to excessive pill burden; cited from earlier work

## CC(C)(c1ccc(OC[C@H](O)CO)cc1)c1ccc(OC[C@H](O)CCl)cc1 [ralaniten]
[1]
  effect on proliferation of LN95 cells: attenuated the proliferation of LN95 cells
[2]
  effect on AR-V7-induced V7BS3-luciferase reporter activity: decreased AR-V7-induced reporter activity
[3]
  effect on colony formation: significantly reduced the number of colonies
[4]
  SA β-gal-positive cells: 31%
[5]; 40 µM of ralaniten
  inhibition of reporter activity at highest concentration: ~ 98%
[5]; EPI-002 20 μM
  fractional response (Fig. 5g): 0.8041 and 0.7145 and 0.7078 and 0.8391
[5]; EPI-002 40 μM
  fractional response (Fig. 5g): 0.9915 and 0.9757 and 0.9847 and 0.9439
[6]
  BrdU incorporation, DU145 (Fig. 4d): 0.692 and 0.859 and 0.62
[7]; IL-6 50 ng/mL
  effect on IL-6-induced transactivation of AR NTD (Gal4-ARN): both blocked
[7]; forskolin 25 μM
  effect on forskolin-induced transactivation of AR NTD (Gal4-ARN): both blocked
[8]
  BrdU incorporation, PC-3 (Fig. 4c): 0.683 and 1.048 and 0.96 and 1.348
[9]
  pharmacokinetics in clinical testing: poor pharmacokinetics
